Experimental data reported in article PMC9056950, “Synthesis and biochemical evaluation of cephalosporin analogues equipped with chemical tethers” (RSC Advances, 2020).
Converted amounts (≈) assume the structure as drawn.

Columns and labels:
[1] = target: T1, PBP3 (Escherichia coli, UniProt P0AD68); assay: thermal shift, ligand titration; format: binding; settings: 2 μM PBP3, 25 min at room temperature before melt 35-70 °C; approximate affinity, not a Kd
T1 construct: gene ftsI
T1 sequence (P0AD68 44-588): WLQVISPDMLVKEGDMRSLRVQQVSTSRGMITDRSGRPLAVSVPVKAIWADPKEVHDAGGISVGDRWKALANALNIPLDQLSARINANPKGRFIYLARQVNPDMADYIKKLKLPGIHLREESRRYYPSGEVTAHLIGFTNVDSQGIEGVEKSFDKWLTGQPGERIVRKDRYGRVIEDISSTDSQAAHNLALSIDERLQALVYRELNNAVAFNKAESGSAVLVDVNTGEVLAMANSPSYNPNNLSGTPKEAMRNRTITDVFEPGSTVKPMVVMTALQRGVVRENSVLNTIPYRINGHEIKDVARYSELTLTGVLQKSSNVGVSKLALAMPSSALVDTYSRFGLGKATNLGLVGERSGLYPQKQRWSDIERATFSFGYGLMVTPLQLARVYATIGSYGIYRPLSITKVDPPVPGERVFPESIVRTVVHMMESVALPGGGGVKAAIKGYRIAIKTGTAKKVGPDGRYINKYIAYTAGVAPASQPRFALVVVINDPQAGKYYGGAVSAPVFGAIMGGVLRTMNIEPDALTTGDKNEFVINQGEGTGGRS

[2] = test system: T2, E. coli; design: species or system Escherichia coli BW25113; broth growth inhibition, OD600, fitted MIC from dose curve, LB, 37 C; settings: 16 h; inhibitor
T2 construct: BW25113
Description: Stock solutions of each compound were prepared in 50% DMSO/water at ×100 the final concentration. In a 96-well plate, 2 μL of the test compounds were added to each well. Each plate included the positive control (750 μg mL^−1 chloramphenicol), the negative control (50% DMSO/water) and media only wells. To each test well was then added 198 μL of the required bacteria stock (OD 0.05). E. coli assays were carried out using LB broth, S. aureus were carried out using tryptic soy broth (TSB). Plates were incubated at 37 °C and the OD600 was measured (Epoch 2 Microplate Spectrophotometer, BioTek) every 30 min over a 17 h period. Tests were carried out in triplicate, the background absorbance was removed using reference wells, and the averages were determined. Dose curves were plotting using the OD600 after 16 h growth vs. compound concentration. MICs were defined as the minimum concentration of compound at which no significant growth was observed after 16 h incubation. MIC values were determined using GraphPad Prism (version 8.3.0). […] Further testing was carried out […] to determine whether the tethered compounds had any antibacterial activity. Table 2 summarises the MIC values determined for 1–12, MBC50 data is included in the ESI. ^†

[3] = test system: T3, E. coli (BW25113); assay: microbe, parasite or virus in culture; design: minimum bactericidal concentration 50 on agar plates; settings: Escherichia coli, read-out: MBC50 E. coli (BW25113)
T3 construct: BW25113

[4] = target: T4, PBP4 (Bacillus subtilis, UniProt P32959); assay: biochemical; design: gene pbpE; commercial protein from Generon; fluorescent dye thermal shift assay, 500 nM PBP4 with 50 uM compound, delta Tm; settings: read-out: Average DTm/°C
T4 sequence (P32959 1-451): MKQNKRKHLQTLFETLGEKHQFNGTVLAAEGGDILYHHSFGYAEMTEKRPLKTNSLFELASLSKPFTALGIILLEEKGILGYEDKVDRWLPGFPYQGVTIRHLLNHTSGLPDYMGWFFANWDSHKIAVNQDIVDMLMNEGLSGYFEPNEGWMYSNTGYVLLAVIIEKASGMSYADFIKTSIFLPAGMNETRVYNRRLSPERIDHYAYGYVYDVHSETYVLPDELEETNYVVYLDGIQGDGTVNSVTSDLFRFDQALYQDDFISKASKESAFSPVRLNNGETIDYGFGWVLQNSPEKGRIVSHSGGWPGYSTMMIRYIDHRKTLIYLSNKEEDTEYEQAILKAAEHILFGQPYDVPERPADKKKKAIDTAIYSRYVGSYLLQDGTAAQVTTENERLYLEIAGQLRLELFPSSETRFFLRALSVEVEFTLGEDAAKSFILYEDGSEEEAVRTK
Description: The thermal shift assay was carried out using the Protein Thermal Shift™ assay kit (Applied Biosystems). 3 μM of purified E. coli PBP3 was incubated with the β-lactam analogues at 300 μM concentration in a mixture containing the Protein Thermal Shift™ Dye. The samples were then heated in a StepOnePlus™ Real-Time PCR System from 25 to 95 °C at a rate of 1 °C min^−1. Tests were carried out in triplicate and the averages plotted as the negative first derivative vs. temperature. Reference wells, i.e. solutions consisting only of only PBP3 with dye, PBP3 only, and dye only, were used as controls. Melting temperature (Tm) values were determined with and without each compound, and the change in melting temperature (ΔTm) was obtained, Fig. 2. The thermal shift assay with PBP4 was carried out using the protocol described for PBP3, with the follow deriviatisation: 500 nM of purified Bacillus subtilis PBP4 was incubated with 50 μM of the β-lactam analogues. A thermal shift assay was used to investigate the binding of the cephalexin analogues to the therapeutic target, PBP, in vitro. This assay provides a fast and inexpensive method of detecting a ligand binding to a protein of interest. Briefly, the protein is gradually heated in the presence of a fluorescent dye that binds non-specifically to the hydrophobic surfaces. […] A change in the melting temperature (Tm) when the protein is heated in the presence of a ligand, indicates a protein–ligand interaction. […] The PBPs can be divided into two main categories: high molecular mass (HMM) and low molecular mass (LMM).[13] PBP3 was chosen as a representative HMM PBP, and PBP4 as a representative LMM PBP. Cephalexin (1) has been previously reported to show good binding affinities for both PBP3 and PBP4.[14] Penicillin (11) and cefpodoxime (12) were included as positive controls. AmpC (Uniprot ID: P00811) was purchased from Abcam plc (Cambridge, UK). PBP4 (Uniprot ID: P32959) was purchased from Generon (Slough, UK).

[5] = target: T1, PBP3; assay: thermal shift (Protein Thermal Shift dye); format: binding; settings: 3 μM PBP3, 300 μM ligand, 25-95 °C at 1 °C/min; Tm increased

With CC1=C(C(=O)O)N2C(=O)[C@@H](NC(=O)[C@H](N)c3ccccc3)[C@H]2SC1 [compound 1, cephalexin] as the molecule, how does the “equivalents required for >Tm1/2” value [1] read?
Its value is 75 equivalents.

What about the “MIC (E. coli, best-fit)” value [2] of the same molecule?
Its value is 94.91 µM (≈ 33 µg/mL).

What about the MBC [3] of the same molecule?
The MBC was greater than 400 µM.

And the ΔTm at 50 µM [4]?
The ΔTm at 50 µM was -0.882 °C.

For CC1=C(C(=O)O)N2C(=O)[C@@H](NC(=O)[C@H](NC(=O)COCC(=O)NCCOCCOCCOCCOCCNC(=O)CCCCCN3C(=O)C=CC3=O)c3ccccc3)[C@H]2SC1 [compound 2, (6R,7R)-7-((R)-30-(2,5-Dioxo-2,5-dihydro-1H-pyrrol-1-yl)-4,8,25-trioxo-2-phenyl-6,12,15,18,21-pentaoxa-3,9,24-triazatriacontanamido)-3-methyl-8-oxo-5-thia-1-azabicyclo[4.2.0]oct-2-ene-2-carboxylic acid], which ΔTm [5] is on record?
Its ΔTm is “all of the analogues tested caused an increase in the Tm with PBP3”.

And the MBC [3]?
The MBC was greater than 400 µM.

What about the ΔTm at 50 µM [4] of the same molecule?
The ΔTm at 50 µM was -1.95 °C.

How did the ΔTm [5] turn out when CC1=C(C(=O)O)N2C(=O)[C@@H](NC(=O)[C@H](NC(=O)CCCCCN3C(=O)C=CC3=O)c3ccccc3)[C@H]2SC1 [compound 3, (6R,7R)-7-((R)-2-(6-(2,5-dioxo-2,5-dihyrdo-1H-pyrrol-1-yl)hexanamido)-2-phenylacetamido)-3-methyl-8-oxo-5-thia-1-azabicyclo[4.2.0]oct-2-ene-2-carboxylic acid] was run?
The ΔTm was “all of the analogues tested caused an increase in the Tm with PBP3”.

And the MBC [3]?
Its MBC is greater than 400 µM.

And the ΔTm at 50 µM [4]?
The ΔTm at 50 µM was -0.378 °C.

What does the source list for C#CCCC(=O)N[C@@H](C(=O)N[C@@H]1C(=O)N2C(C(=O)O)=C(C)CS[C@H]12)c1ccccc1 [compound 4, (6R,7R)-3-Methyl-8-oxo-7-[(2R)-2-(pent-4-ynamido)-2-phenylacetamido]-5-thia-1-azabicyclo[4.2.0]oct-2-ene-2-carboxylic acid]?
ΔTm [5]: all of the analogues tested caused an increase in the Tm with PBP3; MBC [3]: > 400 µM; ΔTm at 50 µM [4]: -0.853 °C

What does the source list for CC1=C(C(=O)O)N2C(=O)[C@@H](NC(=O)[C@H](NC(=O)CCCCC3CCSS3)c3ccccc3)[C@H]2SC1 (stereo partly drawn) [compound 5, (6R,7R)-7-[(2R)-2-[5-(1,2-Dithiolan-3-yl)pentanamido]-2-phenylacetamido]-3-methyl-8-oxo-5-thia-1-azabicyclo[4.2.0]oct-2-ene-2-carboxylic acid]?
ΔTm [5]: all of the analogues tested caused an increase in the Tm with PBP3; MBC [3]: > 400 µM; ΔTm at 50 µM [4]: -0.464 °C

Which ΔTm [5] does the source give for CC1=C(C(=O)O)N2C(=O)[C@@H](NC(=O)[C@H](NC(=O)CCCC(=O)ON3C(=O)CCC3=O)c3ccccc3)[C@H]2SC1 [compound 6, (6R,7R)-7-[(2R)-2-{5-[(2,5-Dioxopyrrolidin-1-yl)oxy]-5-oxopentanamido}-2-phenylacetamido]-3-methyl-8-oxo-5-thia-1-azabicyclo[4.2.0]oct-2-ene-2-carboxylic acid] here?
The ΔTm was “all of the analogues tested caused an increase in the Tm with PBP3”.

What about the MBC [3] of the same molecule?
The MBC was greater than 400 µM.

And the ΔTm at 50 µM [4]?
The ΔTm at 50 µM was -0.708 °C.

How did the ΔTm [5] turn out when CC1=C(C(=O)O)N2C(=O)[C@@H](NC(=O)[C@H](NC(=O)CCCC(=O)O)c3ccccc3)[C@H]2SC1 [compound 7, (6R,7R)-7-[(2R)-2-(4-Carboxybutanamido)-2-phenylacetamido]-3-methyl-8-oxo-5-thia-1-azabicyclo[4.2.0]oct-2-ene-2-carboxylic acid] was run?
The ΔTm was “all of the analogues tested caused an increase in the Tm with PBP3”.

And the MBC [3]?
Its MBC is greater than 400 µM.

And the ΔTm at 50 µM [4]?
The ΔTm at 50 µM was -0.422 °C.

What does the source list for CC(=O)N[C@@H](C(=O)N[C@@H]1C(=O)N2C(C(=O)O)=C(C)CS[C@H]12)c1ccccc1 [compound 8, (6R,7R)-7-[(2R)-2-Acetamido-2-phenylacetamido]-3-methyl-8-oxo-5-thia-1-azabicyclo[4.2.0]oct-2-ene-2-carboxylic acid]?
ΔTm [5]: all of the analogues tested caused an increase in the Tm with PBP3; MBC [3]: > 400 µM; ΔTm at 50 µM [4]: -0.248 °C

What does the source list for CC1=C(C(=O)O)N2C(=O)[C@@H](NC(=O)[C@H](NC(=O)OC(C)(C)C)c3ccccc3)[C@H]2SC1 [compound 9, (6R,7R)-7-[(2R)-2-{[(Tert-butoxy)carbonyl]amino}-2-phenylacetamido]-3-methyl-8-oxo-5-thia-1-azabicyclo[4.2.0]oct-2-ene-2-carboxylic acid]?
ΔTm [5]: all of the analogues tested caused an increase in the Tm with PBP3; MBC [3]: > 400 µM; ΔTm at 50 µM [4]: -0.809 °C

Which ΔTm [5] does the source give for CC1=C(C(=O)O)N2C(=O)[C@@H](NC(=O)[C@H](NC(=O)CCCCN)c3ccccc3)[C@H]2SC1 [compound 10, (6R,7R)-7-[(2R)-2-(5-Aminopentanamido)-2-phenylacetamido]-3-methyl-8-oxo-5-thia-1-azabicyclo[4.2.0]oct-2-ene-2-carboxylic acid] here?
The ΔTm was “all of the analogues tested caused an increase in the Tm with PBP3”.

What about the MBC [3] of the same molecule?
Its MBC is greater than 400 µM.

What about the ΔTm at 50 µM [4] of the same molecule?
Its ΔTm at 50 µM is -0.0272 °C.

Which results are given for COCC1=C(C(=O)O)N2C(=O)[C@@H](NC(=O)/C(=N\OC)c3csc(N)n3)[C@H]2SC1 [compound 12, cefpodoxime]?
MIC (E. coli, best-fit) [2]: 7.744 µM (≈ 3.31 µg/mL); MBC [3]: 100 µM (≈ 42.7 µg/mL); ΔTm at 50 µM [4]: -0.695 °C
